Each structure is given as a SMILES string.

This test deals with T1, SPHK1 (Homo sapiens, UniProt Q9NYA1).
T1 construct: purchased Thermo Fisher Scientific (Life Technologies) SelectScreen
As to the kind of experiment: SelectScreen Adapta. The test is classed as biochemical. Summed up:
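SelectScreen broad panel; activity (Z'LYTE, Adapta) plus binding formats. ATP: Km app for CSF1R Z'LYTE; 10 for CAMK1 Adapta. Readout = % per kinase.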

T1 sequence (Q9NYA1 whole entry): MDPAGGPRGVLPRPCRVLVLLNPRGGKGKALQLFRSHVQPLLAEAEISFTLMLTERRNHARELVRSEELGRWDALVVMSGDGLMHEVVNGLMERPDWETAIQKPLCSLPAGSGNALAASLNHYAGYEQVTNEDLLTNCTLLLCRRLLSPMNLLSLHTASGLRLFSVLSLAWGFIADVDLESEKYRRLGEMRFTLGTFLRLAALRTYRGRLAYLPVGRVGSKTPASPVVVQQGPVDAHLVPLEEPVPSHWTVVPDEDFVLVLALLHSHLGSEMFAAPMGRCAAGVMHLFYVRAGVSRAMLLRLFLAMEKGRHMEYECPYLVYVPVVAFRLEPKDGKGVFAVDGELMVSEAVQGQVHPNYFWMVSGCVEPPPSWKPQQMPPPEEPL

Broadly, the inhibition is the drop in the measured response relative to a control, in per cent. Lower therefore signals little suppression. `CN(C(=O)CN1CCOCC1)c1ccc2sc3c(-c4cccc5c(=O)cc(N6CC7CCC(C6)O7)oc45)cccc3c2c1` [NU5455] returned an inhibition at 1 µM of 2.7%.

These data come from publication PMC6934184, “Selective DNA-PKcs inhibition extends the therapeutic index of localized radiotherapy and chemotherapy” (The Journal of Clinical Investigation, 2019).
